Target: T1, Recombinant arNOX (TM9SF4) (Homo sapiens, UniProt Q92544)
T1 construct: cloning of the soluble fragment of TM9SF4 was successful; Met-Ala-Ser leader from NdeI/NheI of pET11b (my inference from the forward primer CATATGGCTAGCATG); made in house; host or cells: E. coli BL21 (DE3), pET11b
T1 sequence (Q92544 24-252): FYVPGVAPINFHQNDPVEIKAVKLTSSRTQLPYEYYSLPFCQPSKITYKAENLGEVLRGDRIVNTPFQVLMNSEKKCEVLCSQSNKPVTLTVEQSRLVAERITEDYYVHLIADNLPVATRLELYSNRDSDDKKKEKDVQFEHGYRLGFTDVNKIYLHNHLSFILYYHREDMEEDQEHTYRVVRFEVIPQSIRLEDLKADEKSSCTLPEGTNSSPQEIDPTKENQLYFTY
Test: arNOX activity: superoxide generation measured by reduction of ferricytochrome c
Type: biochemical
Conditions: test compounds added after 45 min, reaction continued for an additional 45 min; for inhibition of recombinant arNOX (TM9SF4) activity: extracts made in water unless otherwise indicated
Method: Reduction of ferric cytochrome c by superoxide was employed as a standard measure of superoxide formation (Mayo, L. A. and Curnutte, J., 1990, Meth. Enzymol. 186:567-575; Butler, J. et al., 1982, J. Biol. Chem. 257:10747-10750). This method, when coupled to superoxide dismutase inhibition, is generally accepted for the measurement of superoxide generation. The assay consists of 150 μl buffy coat material in PBSG buffer (8.06 g NaCl, 0.2 g KCl, 0.18 g Na2HPO4, 0.13 g CaCl2, 0.1 g MgCl2, 1.35 g glucose dissolved in 1000 ml deionized water, adjusted to pH 7.4, filtered and stored at 4° C.). Reduction of ferricytochrome c by superoxide was monitored as the increase in absorbance at 550 nm, with reference at 540 nm (Butler et al., 1982). As a further control for the specificity of the arNOX activity, 60 units of superoxide dismutase (SOD) were added near the end of the assay to ascertain that the rate returned to base line. Rates were determined using a SLM Aminco DW-2000 spectrophotometer in the dual wavelength mode of operation.
Rates were determined using an SLM Aminco DW-2000 spectrophotometer (Milton Roy, Rochester, N.Y.) in the dual wave length mode of operation with continuous measurements over 1 min every 1.5 min. After 45 min, test compounds were added and the reaction was continued for an additional 45 min. After 45 min, a millimolar extinction coefficient of 19.1 cm^−1 was used for reduced ferricytochrome c. The results of the test compounds are provided below (Table 4) for experiments carried out with TM9SF4, but from the results of FIG. 7, it is concluded that all the arNOX isoforms have similar responses to the various compounds given below. Extracts were made of the compounds in water unless otherwise indicated.

inhibition of recombinant arNOX (TM9SF4) activity [%] | Compound | sensitivity of recombinant arNOX (TM9SF4) activity to the compound (in words)
80 | O=C(O)c1cc(O)c(O)c(O)c1 [gallic acid] | 
 | CCC(C)C(=O)OC1C(=O)OC2CC3C(C)=CC(=O)C(O)C3(C)C3C(O)C(O)C4(C)OCC23C14 (stereo not drawn) [similikalactone D] | resistant
78 | superoxide dismutase | 

From US20120315629A1, “Cloning and Expression of arNOX Protein Transmembrane 9 Superfamily (TM9SF), Methods and Utility” (Nox Technologies ,Inc., priority 2009, published 2012)
